Assay results as given in ChEMBL document CHEMBL1201862, “PubChem BioAssay data set” (2004).
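These data come from cells grown in 96-well plates and exposed to compound for 48 hours at five concentrations. Abbreviation: GI50, concentration required for 50% inhibition of growth.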 Calls of active or inactive are those of the source. Rule as the data show it: active = GI50 up to about 1.1 µM and inactive = higher.

Experiments:
Assay in all cases: NCI anticancer screen, dose series, 48 h
K562 = test system: K562
HOP-62 = test system: HOP-62
HCT-15 = test system: HCT-15
M14 = test system: M14
SK-MEL-2 = test system: SK-MEL-2
OVCAR-5 = test system: OVCAR-5
SW-620 = test system: SW-620
EKVX = test system: EKVX
HCC 2998 = test system: HCC 2998
SF-295 = test system: SF-295
RXF 393 = test system: RXF 393
RPMI-8226 = test system: RPMI-8226
IGROV-1 = test system: IGROV-1
HCT-116 = test system: HCT-116
ACHN = test system: ACHN
SNB-75 = test system: SNB-75
UO-31 = test system: UO-31
SF-268 = test system: SF-268
MDA-MB-435 = test system: MDA-MB-435
NCI/ADR-RES = test system: NCI/ADR-RES

| Compound | GI50 (K562) | GI50 (HOP-62) | GI50 (HCT-15) | GI50 (M14) | GI50 (SK-MEL-2) | GI50 (OVCAR-5) | GI50 (SW-620) | GI50 (EKVX) | GI50 (HCC 2998) | GI50 (SF-295) | GI50 (RXF 393) | GI50 (RPMI-8226) | GI50 (IGROV-1) | GI50 (HCT-116) | GI50 (ACHN) | GI50 (SNB-75) | GI50 (UO-31) | GI50 (SF-268) | GI50 (MDA-MB-435) | GI50 (NCI/ADR-RES) |
| --- | --- | --- | --- | --- | --- | --- | --- | --- | --- | --- | --- | --- | --- | --- | --- | --- | --- | --- | --- | --- |
| CC(=O)c1ccc(NC(=O)/C(=N\NC(N)=O)C(C#N)CC(C)(C)C=O)cc1 (stereo unspecified) | > 100 µM (inactive) | > 100 µM (inactive) | > 100 µM | > 100 µM (inactive) | > 100 µM (inactive) | > 100 µM (inactive) | > 100 µM (inactive) | > 100 µM (inactive) | > 100 µM (inactive) | > 100 µM (inactive) | > 100 µM (inactive) | > 100 µM (inactive) | > 100 µM (inactive) | > 100 µM (inactive) | > 100 µM (inactive) | > 100 µM (inactive) | > 100 µM (inactive) | > 100 µM (inactive) |  |  |
| O=c1c2cc([N+](=O)[O-])ccc2sc2ccsc12 | > 100 µM (inactive) | > 100 µM (inactive) | > 100 µM | > 100 µM (inactive) | > 100 µM (inactive) | > 100 µM (inactive) | > 100 µM (inactive) | > 100 µM (inactive) | > 100 µM (inactive) | > 100 µM (inactive) | > 100 µM (inactive) | > 100 µM (inactive) | > 100 µM (inactive) | > 100 µM (inactive) | > 100 µM (inactive) | > 100 µM (inactive) | > 100 µM (inactive) | > 100 µM (inactive) |  |  |
| CCn1nc(C)c2c1C(=O)NCC(=O)N2 |  |  | > 100 µM | > 100 µM (inactive) |  | > 100 µM (inactive) | > 100 µM (inactive) | > 100 µM (inactive) |  | > 100 µM (inactive) | > 100 µM (inactive) |  | > 100 µM (inactive) | > 100 µM (inactive) | > 100 µM (inactive) | > 100 µM (inactive) | > 100 µM (inactive) | > 100 µM (inactive) | > 100 µM (inactive) |  |
| Oc1cc(-c2ccc(Oc3ccccc3)cc2)nc2cc3c(cc12)OCO3 | > 100 µM (inactive) | > 100 µM (inactive) | > 100 µM | > 100 µM (inactive) | > 100 µM (inactive) |  | > 100 µM (inactive) | > 100 µM (inactive) | > 100 µM (inactive) | > 100 µM (inactive) | 57.5 µM (inactive) | > 100 µM (inactive) | > 100 µM (inactive) | > 100 µM (inactive) | > 100 µM (inactive) | 27.2 µM (inactive) | > 100 µM (inactive) | > 100 µM (inactive) |  |  |
| O=NN(CCF)C(=O)NC1CC2CCC1C2 (stereo unspecified) | > 53 µM (inactive) | > 84.1 µM (inactive) | > 74.3 µM |  | > 100 µM (inactive) | > 100 µM (inactive) | > 100 µM (inactive) | > 100 µM (inactive) | > 100 µM (inactive) | > 100 µM (inactive) | > 100 µM (inactive) | > 54.3 µM (inactive) | > 72.9 µM (inactive) | > 100 µM (inactive) |  | > 100 µM (inactive) | > 100 µM (inactive) | > 100 µM (inactive) |  | > 100 µM (inactive) |
| Cn1c(=O)oc2cc(C3CCC(=O)N3Cc3ccc(Cl)cc3)ccc21 (stereo unspecified) | > 100 µM (inactive) | > 100 µM (inactive) | > 100 µM | > 100 µM (inactive) | > 100 µM (inactive) | > 100 µM (inactive) | > 100 µM (inactive) | > 100 µM (inactive) | > 100 µM (inactive) | > 100 µM (inactive) | 29.6 µM (inactive) | > 100 µM (inactive) | > 100 µM (inactive) | > 100 µM (inactive) | > 100 µM (inactive) | 47.9 µM (inactive) | > 100 µM (inactive) | > 100 µM (inactive) |  |  |
| O=C(/C=C/c1ccccc1O)/C=C/c1ccccc1O | 0.611 µM (active) | 2.26 µM (inactive) | 1.45 µM | 1.71 µM (inactive) | 9.25 µM (inactive) | 1.49 µM (inactive) | 0.966 µM (active) |  |  | 1.67 µM (inactive) |  | 0.19 µM (active) | 1.64 µM (inactive) | 0.332 µM (active) | 1.8 µM (inactive) | 3.9 µM (inactive) | 1.83 µM (inactive) | 0.254 µM (active) | 1.95 µM (inactive) | 2.14 µM (inactive) |
| Cc1cccc(C)c1NC(=O)CCc1nnc(S)[nH]1 | > 100 µM (inactive) | > 100 µM (inactive) | > 100 µM | > 100 µM (inactive) | > 100 µM (inactive) | > 100 µM (inactive) | > 100 µM (inactive) | > 100 µM (inactive) | > 100 µM (inactive) |  | > 100 µM (inactive) | > 100 µM (inactive) | > 100 µM (inactive) | > 100 µM (inactive) | > 100 µM (inactive) | > 100 µM (inactive) | > 100 µM (inactive) | > 100 µM (inactive) |  |  |
| COC(=O)CNCC1OC2OC(C)(C)OC2C1N=[N+]=[N-] (stereo unspecified) | > 100 µM (inactive) | > 100 µM (inactive) | > 100 µM |  | > 100 µM (inactive) | > 100 µM (inactive) | > 100 µM (inactive) | > 100 µM (inactive) |  | > 100 µM (inactive) | > 100 µM (inactive) | > 100 µM (inactive) | > 100 µM (inactive) | > 100 µM (inactive) | > 100 µM (inactive) | > 100 µM (inactive) | > 100 µM (inactive) |  | > 100 µM (inactive) | > 100 µM (inactive) |
| COC1=C2CC(C)CC(OC)C(O)C(C)/C=C(\C)C(OC(N)=O)C(OC)/C=C\C=C(/C)C(=O)NC(=C(/C=N/N3CCCCC3)C1=O)C2=O (stereo unspecified) | 5.4 µM (inactive) | 18.3 µM (inactive) | 12.2 µM | 18.7 µM (inactive) | 17 µM (inactive) | 19.4 µM (inactive) | 2.82 µM (inactive) | 8.43 µM (inactive) | 6.7 µM (inactive) | 13.5 µM (inactive) | 5.73 µM (inactive) | 5.55 µM (inactive) | 5.5 µM (inactive) | 3.25 µM (inactive) | 15.4 µM (inactive) | 17.8 µM (inactive) | 10.8 µM (inactive) | 6.18 µM (inactive) |  |  |
| O=C1OC(c2ccco2)=N/C1=C\c1ccc(Cl)c(Cl)c1 | > 100 µM (inactive) | 27.4 µM (inactive) | > 100 µM | > 100 µM (inactive) | > 100 µM (inactive) | > 100 µM (inactive) | > 100 µM (inactive) | 75.9 µM (inactive) | 70.8 µM (inactive) | > 100 µM (inactive) | 22 µM (inactive) | > 100 µM (inactive) | > 100 µM (inactive) | 72.8 µM (inactive) | 60 µM (inactive) | 53.8 µM (inactive) |  | 59.6 µM (inactive) | > 100 µM (inactive) |  |
| COC1OC(C(C)O)C2OC(C)(C)OC12 (stereo unspecified) | > 100 µM (inactive) | > 100 µM (inactive) | > 100 µM | > 100 µM (inactive) | > 100 µM (inactive) | > 100 µM (inactive) | > 100 µM (inactive) | > 100 µM (inactive) |  | > 100 µM (inactive) |  | > 100 µM (inactive) | > 100 µM (inactive) | > 100 µM (inactive) | > 100 µM (inactive) | > 100 µM (inactive) | > 100 µM (inactive) | > 100 µM (inactive) | > 100 µM (inactive) | > 100 µM (inactive) |
| Cc1ccc(NC(=O)C2C(=O)N(c3ccc(C)c(C)c3)C(=O)/C2=N\NC(N)=O)cc1C (stereo unspecified) | 52.7 µM (inactive) | > 100 µM (inactive) | 79.4 µM | > 100 µM (inactive) | 96.4 µM (inactive) | > 100 µM (inactive) | > 100 µM (inactive) | 55.8 µM (inactive) | > 100 µM (inactive) | 86.9 µM (inactive) | > 100 µM (inactive) | 69.2 µM (inactive) | 89.5 µM (inactive) | 85.3 µM (inactive) | > 100 µM (inactive) | > 100 µM (inactive) | 57.4 µM (inactive) | 74 µM (inactive) |  |  |
| CC[C@@]12CCC(=S)N(CCSc3ccccc3)[C@@H]1c1c(n(S(=O)(=O)c3ccc(OC)cc3)c3ccccc13)CC2 | > 100 µM (inactive) | > 100 µM (inactive) | > 100 µM | > 100 µM (inactive) | > 100 µM (inactive) | > 100 µM (inactive) | > 100 µM (inactive) | > 100 µM (inactive) |  | > 100 µM (inactive) | 24.1 µM (inactive) | > 100 µM (inactive) | > 100 µM (inactive) | > 100 µM (inactive) |  | 46.3 µM (inactive) | > 100 µM (inactive) | > 100 µM (inactive) | > 100 µM (inactive) | > 100 µM (inactive) |
| COC(=O)C(C/C=C(\C)c1ccccc1)C(C)=O (stereo unspecified) | 44.9 µM (inactive) | > 100 µM (inactive) | 66.1 µM |  | 52.7 µM (inactive) | > 100 µM (inactive) | > 100 µM (inactive) | > 100 µM (inactive) | > 100 µM (inactive) | 18.4 µM (inactive) | > 100 µM (inactive) | 27.2 µM (inactive) | > 100 µM (inactive) | 57.1 µM (inactive) |  | 47.3 µM (inactive) | 33.2 µM (inactive) | 97.3 µM (inactive) |  | 54.6 µM (inactive) |
| Cc1nc(O)nc2c1C(NCCCN(C)C)c1cc(Cl)ccc1N2 (stereo unspecified) | 8.61 µM (inactive) | 14.6 µM (inactive) |  | 9.59 µM (inactive) | 17.4 µM (inactive) |  | 15.2 µM (inactive) | 16.3 µM (inactive) | 16.3 µM (inactive) | 16.6 µM (inactive) | 13.6 µM (inactive) | 17.3 µM (inactive) | 16.2 µM (inactive) | 15 µM (inactive) | 16.6 µM (inactive) | 12.8 µM (inactive) | 13.6 µM (inactive) | 16.2 µM (inactive) |  |  |
